This is an account of results in patent publication US20220033407A1, “N-(pyridin-2-ylsulfonyl)cyclopropanecarboxamide Derivatives and their Use in the Treatment of Disease” (NOVARTIS AG, priority 2018, published 2022).

In one assay the target is T1, delF508-CFTR (Homo sapiens, UniProt P13569, DEL508-508).
T1 construct: functional activity of the CFTR channel (Chloride ion transport) in patient derived primary human bronchial epithelial cells; host or cells: patient-derived primary human bronchial epithelial cells (HBECs), delF508-CFTR
T1 sequence (P13569 with tags, fused parts or gaps DEL508-508): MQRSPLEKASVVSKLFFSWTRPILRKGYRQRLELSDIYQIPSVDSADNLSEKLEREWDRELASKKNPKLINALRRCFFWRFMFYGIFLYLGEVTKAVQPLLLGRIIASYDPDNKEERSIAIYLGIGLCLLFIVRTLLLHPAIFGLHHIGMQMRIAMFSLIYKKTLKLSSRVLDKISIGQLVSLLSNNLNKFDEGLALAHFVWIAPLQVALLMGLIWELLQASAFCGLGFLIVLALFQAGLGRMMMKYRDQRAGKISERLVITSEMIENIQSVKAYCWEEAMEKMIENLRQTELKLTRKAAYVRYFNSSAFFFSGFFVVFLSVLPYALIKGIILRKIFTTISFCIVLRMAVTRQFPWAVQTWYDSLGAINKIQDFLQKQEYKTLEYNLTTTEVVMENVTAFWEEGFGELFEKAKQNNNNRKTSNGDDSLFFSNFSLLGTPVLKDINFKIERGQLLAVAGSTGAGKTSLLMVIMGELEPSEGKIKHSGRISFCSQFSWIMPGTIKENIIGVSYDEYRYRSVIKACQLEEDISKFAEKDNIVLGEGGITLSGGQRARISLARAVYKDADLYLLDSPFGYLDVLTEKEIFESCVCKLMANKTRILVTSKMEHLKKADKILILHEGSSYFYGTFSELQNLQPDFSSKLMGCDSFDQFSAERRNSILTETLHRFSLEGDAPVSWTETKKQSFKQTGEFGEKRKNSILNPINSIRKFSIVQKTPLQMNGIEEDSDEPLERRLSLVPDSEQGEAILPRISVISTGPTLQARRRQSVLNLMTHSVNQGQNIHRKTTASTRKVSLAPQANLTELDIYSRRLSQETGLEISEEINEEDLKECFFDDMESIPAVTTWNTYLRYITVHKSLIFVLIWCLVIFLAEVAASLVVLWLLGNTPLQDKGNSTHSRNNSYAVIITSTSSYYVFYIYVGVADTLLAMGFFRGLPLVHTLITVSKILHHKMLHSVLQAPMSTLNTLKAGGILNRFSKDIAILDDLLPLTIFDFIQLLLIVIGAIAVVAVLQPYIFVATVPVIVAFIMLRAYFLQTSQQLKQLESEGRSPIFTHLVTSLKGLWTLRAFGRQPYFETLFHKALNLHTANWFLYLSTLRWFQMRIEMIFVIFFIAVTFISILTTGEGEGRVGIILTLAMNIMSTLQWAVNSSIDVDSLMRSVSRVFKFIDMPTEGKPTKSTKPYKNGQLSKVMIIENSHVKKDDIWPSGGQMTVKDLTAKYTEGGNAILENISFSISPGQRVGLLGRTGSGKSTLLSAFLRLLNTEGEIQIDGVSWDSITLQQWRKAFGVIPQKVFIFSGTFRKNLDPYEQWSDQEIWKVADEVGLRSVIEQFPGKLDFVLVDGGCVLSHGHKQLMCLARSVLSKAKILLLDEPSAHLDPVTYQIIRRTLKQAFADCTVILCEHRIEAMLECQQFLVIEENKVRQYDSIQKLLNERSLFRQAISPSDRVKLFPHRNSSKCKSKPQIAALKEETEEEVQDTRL
As to the kind of experiment: delF508-CFTR functional activity in primary human bronchial epithelial cells (HBECs), Multi-Transepithelial Clamp Circuit (MTECC-24) assay, equivalent short circuit current. It is filed as cell-based. The settings on record: primary CF HBECs; for MTECC24 CFHBEC-Amax %: relative to reference combination 2 μM 3-(6-(1-(2,2-difluorobenzo[d][1,3]dioxol-5-yl)cyclopropane-1-carboxamido)-3-methylpyridin-2-yl)benzoic acid (24 h) + 0.5 μM N-(2,4-di-tert-butyl-5-hydroxyphenyl)-4-oxo-1,4-dihydroquinoline-3-carboxamide; for EC50: test compound added 24 h before assay, potentiator (S)-3-amino-6-methoxy-N-(3,3,3-trifluoro-2-hydroxy-2-methylpropyl)-5-(trifluoromethyl)picolinamide present at assay, mean of at least two replicates, read-out: MTECC24 CFHBEC-EC50. The method, boiled down: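 Compound acted as corrector on differentiated primary delF508-CFTR bronchial cultures, first 24 h basolaterally, then 45 min both sides before reading. Equivalent short circuit current was recorded during sequential forskolin and potentiator addition. EC50 came from 10-point, 1-in-3 dilution curves against the 0.1% DMSO baseline.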

The next assay has as its target T2, delF508-CFTR-HRP (Homo sapiens, UniProt P13569, DEL508-508).
T2 construct: expressed in transfected cells
As to the kind of experiment: Measurement of delF508-CFTR-HRP surface expression in CFBE41o- cells (HRP luminescence).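 As to DelF508-CFTR-HRP Amax %: percent efficacy relative to a reference CFTR corrector compound.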 It is filed as cell-based. The settings on record: for Emax: CFBE41o-, read-out: DelF508-CFTR-HRP Amax %; for EC50: mean of at least two replicates. An outline of the steps:
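EC50 derived by logistic regression of triplicate surface-HRP luminescence, plate-normalized to the lowest-concentration median. Doxycycline (500 ng/mL, 48 h) induced delF508-CFTR-HRP in CFBE41o- cells; compounds then applied 24 h at 37° C, 10 μM top, 3-fold over 10 points.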

Structures are written as SMILES.

T2 sequence (P13569 with tags, fused parts or gaps DEL508-508): as above

Consider `Cc1ccc(C2CCCCC2)c(OC2(C(=O)NS(=O)(=O)c3cccc(N4CCC(C)(NC(=O)NC5CC5)CC4)n3)CC2)c1` [Example 2-11, 1-(2-Cyclohexyl-5-methylphenoxy)-N-((6-(4-(3-cyclopropylureido)-4-methylpiperidin-1-yl)pyridin-2-yl)sulfonyl)cyclopropanecarboxamide], for which, on delF508-CFTR, the “MTECC24 CFHBEC-Amax %” value was 77% and the half-maximal effective concentration (EC50) – broadly, the concentration needed to bring the measured effect to its halfway point – came to 20 nM. Further, on delF508-CFTR-HRP, the Emax amounted to 286% and the EC50 is 2590 nM.
In the case of `Cc1ccc(C2CCC(C)(C)OC2)c(OC2(C(=O)NS(=O)(=O)c3cccc(N4CCC(O)(C(F)(F)F)CC4)n3)CC2)c1` (single isomer, unassigned) [Example 11-2-2, 1-(2-(6,6-Dimethyltetrahydro-2H-pyran-3-yl)-5-methylphenoxy)-N-((6-(4-hydroxy-4-(trifluoromethyl)piperidin-1-yl)pyridin-2-yl)sulfonyl)cyclopropane-1-carboxamide], on delF508-CFTR, the “MTECC24 CFHBEC-Amax %” value is 100.3% and the EC50 was 757 nM. Besides, at delF508-CFTR-HRP, the “DelF508-CFTR-HRP Amax %” value was 361.4% and the EC50 amounted to 1780 nM.
As to `Cc1ccc(C2CCC(F)(F)CC2)c(OC2(C(=O)NS(=O)(=O)c3cccc(NC[C@@H](C)O)n3)CC2)c1` [Example 3-4, (R)-1-(2-(4,4-Difluorocyclohexyl)-5-methylphenoxy)-N-((6-((2-hydroxypropyl)amino)pyridin-2-yl)sulfonyl)cyclopropane-1-carboxamide], at delF508-CFTR, the “MTECC24 CFHBEC-Amax %” value amounted to 87% and the EC50 was found to be 92 nM. At delF508-CFTR-HRP, the Emax was 318% and the response was half-maximal at 3850 nM (EC50).
In the same order, the values of `Cc1ccc(N2CCC(C)(C)CC2)c(OC2(C(=O)NS(=O)(=O)c3cccc(N4CC[C@H](O)C4)n3)CC2)c1` [Example 10-4, (S)-1-(2-(4,4-dimethylpiperidin-1-yl)-5-methylphenoxy)-N-((6-(3-hydroxypyrrolidin-1-yl)pyridin-2-yl)sulfonyl)cyclopropanecarboxamide] are 103.3%, 482 nM, 717% and 2630 nM.
In the same order, the values of `Cc1ccc(C2CCCCC2)c(OC2(C(=O)NS(=O)(=O)c3cccc(N4CCO[C@H](C)C4)n3)CC2)c1` [Example 2-53, (R)-1-(2-Cyclohexyl-5-methylphenoxy)-N-((6-(2-methylmorpholino)pyridin-2-yl)sulfonyl)cyclopropane-1-carboxamide] are 82%, 2 nM, 416% and 1590 nM.
Taken in the same sequence, the figures for `Cc1ccc(C2CCCCC2)c(OC2(C(=O)NS(=O)(=O)c3cccc(N)n3)CC2)c1` [Example 1-1, N-((6-Aminopyridin-2-yl)sulfonyl)-1-(2-cyclohexyl-5-methylphenoxy)cyclopropane-1-carboxamide] were 91%, 15 nM, 421% and 2010 nM.
Consider `Cc1ccc(S(=O)(=O)N2CC3(CCN3c3cccc(S(=O)(=O)NC(=O)C4(Oc5cc(C)ccc5C5CCCCC5)CC4)n3)C2)cc1` [Example 2-56, 1-(2-Cyclohexyl-5-methylphenoxy)-N-((6-(6-tosyl-1,6-diazaspiro[3.3]heptan-1-yl)pyridin-2-yl)sulfonyl)cyclopropane-1-carboxamide], for which, on delF508-CFTR, the “MTECC24 CFHBEC-Amax %” value was 83% and the EC50 is 40 nM. At delF508-CFTR-HRP, the Emax stood at 381% and the response was half-maximal at 2510 nM (EC50).
Taken in the same sequence, the figures for `CO[C@H]1CCN(c2cccc(S(=O)(=O)NC(=O)C3(Oc4cc(Cl)ccc4C4CC5(CCC5)C4)CC3)n2)C1` [Example 7-14, (S)-1-(5-Chloro-2-(spiro[3.3]heptan-2-yl)phenoxy)-N-((6-(3-methoxypyrrolidin-1-yl)pyridin-2-yl)sulfonyl)cyclopropane-1-carboxamide] were 128.1%, 317 nM, 496% and 1100 nM.
Take `Cc1ccc(C2(C(F)(F)F)CC2)c(OC2(C(=O)NS(=O)(=O)c3cccc(N)n3)CCCC2)c1` [Example 1-8, N-((6-Aminopyridin-2-yl)sulfonyl)-1-(5-methyl-2-(1-(trifluoromethyl)cyclopropyl)phenoxy)cyclopentane-1-carboxamide]: at delF508-CFTR, the “MTECC24 CFHBEC-Amax %” value came out at 46% and the EC50 was 6 nM. In addition, at delF508-CFTR-HRP, the Emax was 165% and a half-maximal response (EC50) required 2380 nM.
In the same order, the values of `Cc1ccc(C2CCCCC2)c(OC2(C(=O)NS(=O)(=O)c3cccc(N4CCC(C(=O)O)CC4)n3)CC2)c1` [Example 2-6, 1-(6-(N-(1-(2-cyclohexyl-5-methylphenoxy)cyclopropanecarbonyl)sulfamoyl)pyridin-2-yl)piperidine-4-carboxylic acid] are 62%, 131 nM, 34% and 4560 nM.
Taken in the same sequence, the figures for `Cc1ccc(C2CCCCC2)c(OC2(C(=O)NS(=O)(=O)c3cccc(N4CCN(c5ccccc5)CC4)n3)CC2)c1` [Example 2-54, 1-(2-Cyclohexyl-5-methylphenoxy)-N-((6-(4-phenylpiperazin-1-yl)pyridin-2-yl)sulfonyl)cyclopropane-1-carboxamide] were 70%, 14 nM, 513% and 650 nM.
Take `Cc1ccc(C2CCCCC2)c(OC2(C(=O)NS(=O)(=O)c3cccc(N4CC5(CN(C(=O)OC(C)(C)C)C5)C4)n3)CC2)c1` [Example 2-29, Tert-butyl 6-(6-(N-(1-(2-cyclohexyl-5-methylphenoxy)cyclopropanecarbonyl)sulfamoyl)pyridin-2-yl)-2,6-diazaspiro[3.3]heptane-2-carboxylate]: on delF508-CFTR, the “MTECC24 CFHBEC-Amax %” value amounted to 76% and the EC50 was determined as 63 nM. Also, on delF508-CFTR-HRP, the Emax worked out at 626% and the EC50 worked out at 870 nM.
In the same order, the values of `Cc1ccc(C2CCCCC2)c(OC2(C(=O)NS(=O)(=O)c3cccc(N[C@H]4C[C@@H](O)C4)n3)CC2)c1` [Example 2-36, 1-(2-Cyclohexyl-5-methylphenoxy)-N-((6-((cis-3-hydroxycyclobutyl)amino)pyridin-2-yl)sulfonyl)cyclopropane-1-carboxamide] are 152%, 44 nM, 432% and 2090 nM.
Regarding `C[C@H](O)CNc1cccc(S(=O)(=O)NC(=O)C2(Oc3cc(Cl)ccc3C3CC3)CC2)n1` [Example 4-15, (S)-1-(5-Chloro-2-cyclopropylphenoxy)-N-((6-((2-hydroxypropyl)amino)pyridin-2-yl)sulfonyl)cyclopropane-1-carboxamide], on delF508-CFTR, the “MTECC24 CFHBEC-Amax %” value is given as 35% and the EC50 came out at 69 nM. Moreover, on delF508-CFTR-HRP, the Emax worked out at 114% and the EC50 was found to be 4160 nM.
Taken in the same sequence, the figures for `O=C(NS(=O)(=O)c1cccc(N2CC(O)C2)n1)C1(Oc2cc(Cl)ccc2C2CCC3(CC2)CC3)CC1` [Example 4-12, 1-(5-Chloro-2-(spiro[2.5]octan-6-yl)phenoxy)-N-((6-(3-hydroxyazetidin-1-yl)pyridin-2-yl)sulfonyl)cyclopropane-1-carboxamide] were 82%, 51 nM, 418% and 1920 nM.
In the same order, the values of `O=C(NS(=O)(=O)c1cccc(N2CCC(O)CC2)n1)C1(Oc2cc(Cl)ccc2C2CC3(CCC3)C2)CC1` [Example 7-11, 1-(5-Chloro-2-(spiro[3.3]heptan-2-yl)phenoxy)-N-((6-(4-hydroxypiperidin-1-yl)pyridin-2-yl)sulfonyl)cyclopropane-1-carboxamide] are 154.0%, 197 nM, 446% and 1260 nM.
Regarding `Cc1ccc(OC2Cc3ccccc3C2)c(OC2(C(=O)NS(=O)(=O)c3cccc(N4CC[C@H](O)C4)n3)CC2)c1` [Example 6-10, (S)-1-(2-((2,3-dihydro-1H-inden-2-yl)oxy)-5-methylphenoxy)-N-((6-(3-hydroxypyrrolidin-1-yl)pyridin-2-yl)sulfonyl)cyclopropanecarboxamide], on delF508-CFTR, the “MTECC24 CFHBEC-Amax %” value is 79.2% and the EC50 was 1440 nM. In addition, on delF508-CFTR-HRP, the Emax came out at 350% and it took 2670 nM to reach a half-maximal effect (EC50).
In the same order, the values of `CC(C)(C)C1CCC(Oc2ccc(Cl)cc2OC2(C(=O)NS(=O)(=O)c3cccc(N4CC[C@H](O)C4)n3)CC2)CC1` (stereo partly drawn) [Example 6-7, (S)-1-(2-((4-(tert-butyl)cyclohexyl)oxy)-5-chlorophenoxy)-N-((6-(3-hydroxypyrrolidin-1-yl)pyridin-2-yl)sulfonyl)cyclopropanecarboxamide] are 203.9%, 116 nM, 446% and 760 nM.
